According to patent publication US20100184814A1, “Ester Derivatives of Losartan, Methods for Their Preparation, and Uses Thereof” (priority 2009, published 2010):

Experiments:
[1] = Pharmacokinetic study: plasma compound (II) (Losartan) after oral dosing of compounds of formula (I); format: in vivo; settings: male Kumin mice, fasted, single oral gavage dose 5.8 mg/kg referenced to compound (II)
Protocol: Pharmacokinetic studies. The pharmacokinetics (PK) of compounds of formula (I) as well as Losartan were investigated in male Kumin mice. There were six mice per group and nine groups for this study. All mice were fasted overnight, following a single dose of 5.8 mg/kg referenced to the amount of metabolite, the compound of formula (2) from every compound of formula (1) studied. All mice were given dosing orally by gavage. The dosing vehicle used was propyleneglycol:water (1:1). The mice were fed 4 h post dose. Blood samples were collected at 0, 15, 30, 45 min, 1, 2, 4, 7, 10 and 15 h oral dosing. Approximately […] of blood was collected from the jugular vein in tubes containing EDTA, and plasma was obtained by centrifugation. Plasma samples were stored at −20° C. until analysis. Samples were analyzed for the compound of formula (II), (1-((2′-(2H-tetrazol-5-yl)biphenyl-4-yl)methyl)-2-butyl-4-chloro-1H-imidazol-5-yl)methanol, by LC/MS/MS.

[2] = background statement on Losartan; cited from earlier work
[3] = compound (II) (Losartan) measured in plasma

Row | Structure (SMILES) | Bioavailability of compound (II) [1, 3] [%] | Half-time (T1/2) of compound (II) [1, 3] [h] | Cmax ([1]; compound (II) (Losartan) measured in plasma by LC/MS/MS, read-out: Maximum Blood Concentration (Cmax) of compound (II)) [nM] | bioavailability [2] | half-life [2] [h]
1 | CCCCc1nc(Cl)c(COC(=O)CN)n1Cc1ccc(-c2ccccc2-c2nn[nH]n2)cc1 [Compound (118), (S)-(1-((2′-(2H-tetrazol-5-yl)biphenyl-4-yl)methyl)-2-butyl-4-chloro-1H-imidazol-5-yl)methyl 2-aminoacetate] | 19 | 1.9 | 504 | – | –
2 | CCCCc1nc(Cl)c(CO)n1Cc1ccc(-c2ccccc2-c2nn[nH]n2)cc1 [Losartan, (1-((2′-(2H-tetrazol-5-yl)biphenyl-4-yl)methyl)-2-butyl-4-chloro-1H-imidazol-5-yl)methanol] | – | – | – | 25-35% | 1 to 2
